According to US11603570B2, “Methods for the detection and treatment of leukemias that are responsive to DOT1L inhibition” (MEMORIAL SLOAN KETTERING CANCER CENTER, priority 2013, dated 2023):
“Also recorded” adds a separate entry of the source.

Assays:
HL-60 = assay: Cell proliferation, HL-60; type: cell-based; conditions: Homo sapiens; non-MLL-translocated line HL-60; FIG. 2
[1] = system: Npm1^cA/+Rosa^SB/+ AML cells; assay: Colony formation of Npm1^cA/+Rosa^SB/+ AML cells; conditions: 10 μM; after primary and secondary transplantation; FIG. 12A, B
[2] = system: Npm1^cA/+Rosa^SB/+ AML cells; assay: Leukemia initiating potential in vivo, mice injected with pre-treated Npm1^cA/+Rosa^SB/+ cells; design: species or system mouse
Description: FIGS. 13A-13C show the effects of DOT1L inhibition on leukemia initiating potential in vivo. […] FIG. 13B indicates differentiation in EPZ00477 treated cells (and not in cells exposed to only DMSO). […] Numbers of white blood cells and platelets are expressed as number of cells per microliter (μL) of blood. Hemoglobin levels are expressed in grams per deciliter (g/dl).
Furthermore, peripheral blood smears stained with Wright-Giemsa stain indicate differentiation in EPZ00477 treated cells (and not in cells exposed to only DMSO) (FIG. 13B).

OCI-AML3 [3] = assay: Apoptosis and cell cycle in OCI-AML3 cells
[4] = system: Npm1^cA/+Flt3^ITD/+ AML cells; assay: Colony formation of Npm1^cA/+Flt3^ITD/+ AML cells; conditions: 10 μM, after primary and secondary transplantation, FIG. 12A, B
[5] = system: MLL-AF9 transformed cells; assay: Annexin V apoptosis in MLL-AF9 transformed cells; type: cell-based, mouse; conditions: 10 μM, 10 days; FIG. 8B
Method: The percentage of Annexin V positive cells is shown.
(§1) Apoptosis was assessed by staining cells with Annexin V 10 days after treatment. The extent of apoptosis was compared to that found in MLL-AF9 transformed cells treated in a similar fashion.

THP-1 = assay: Cell proliferation, THP-1; type: cell-based; conditions: Homo sapiens; MLL-translocated line THP-1; FIG. 2
[6] = system: Npm1^cA/−Flt3^ITD/+ AML cells; assay: Survival of C57/BL6 mice injected with pre-treated Npm1^cA/−Flt3^ITD/+ cells
HOXA9 and MEIS1 = conditions: cited from earlier work
OCI-AML3 [7] = assay: Proliferation of OCI-AML3 (NPM1 mutant) cells; type: cell-based, human
Method: as §1
(§2) Cell numbers were assessed at multiple time points after treatment was initiated. […] Evidence of differentiation was assessed after DOT1L inhibition via characterization of cell surface marker expression—such as CD11b and CD15 expression, both of which are induced upon differentiation of myelomonocytic leukemia cells.
(§3) MTT assays were performed on day 11.

MV4-11 [8] = assay: Cell proliferation, MV4-11; type: cell-based; conditions: Homo sapiens; MLL-translocated line MV4-11; FIG. 2
[9] = system: HOXA9, HOXA10, MEIS1, HOXB3, HOXB4 and HOXB5 mRNA; assay: HOX gene qPCR in Npm1^cA/+Rosa^SB/+ AML cells; type: cell-based, mouse; conditions: 10 μM, FIG. 14A
Method: (§4) The effect of DOT1L inhibition on the levels of various HOX genes and HOX-associated genes was evaluated using qPCR.

H3K79me2 [10] = conditions: 0.048, 0.195, 0.781, 3.12, and 12.5 μm; FIG. 1A; cited from earlier work
Kasumi-1 = assay: Cell proliferation, Kasumi-1 (AML1-ETO)
[11] = system: MLL-translocated cell lines; assay: Proliferation of MLL-translocated cell lines; conditions: versus MLL-germline lines; FIG. 2
MV4-11 [12] = conditions: Daigle, 2011; cited from earlier work
SEMK2 = assay: Cell proliferation, SEMK2; type: cell-based; conditions: Homo sapiens; MLL-translocated line SEMK2; FIG. 2
[13] = system: HOXA9, HOXA10, MEIS1, HOXB3, HOXB4 and HOXB5 mRNA; assay: HOX gene qPCR in Npm1^cA/+Flt3^ITD/+ AML cells; type: cell-based, mouse; conditions: 10 μM, FIG. 14B
Method: as §4

H3K79me2 [14] = assay: H3K79me2 Western blot in MLL-AF9 transformed cells; type: cell-based, mouse; conditions: 10 μM, 10 days, FIG. 8A
Molm-13 [15] = assay: Cell proliferation, Molm-13; type: cell-based; conditions: Homo sapiens; MLL-translocated line Molm-13; FIG. 2
REH = assay: Cell proliferation, REH; type: cell-based; conditions: Homo sapiens; non-MLL-translocated line REH; FIG. 2
KOPN-8 = assay: Cell proliferation, KOPN-8; type: cell-based; conditions: Homo sapiens; MLL-translocated line KOPN-8; FIG. 2
OCI-AML3 [16] = assay: Differentiation marker CD11b in OCI-AML3 cells; conditions: 10 μM, days 4, 7, and 10; FIG. 11B
EOL-1 = assay: Proliferation of MLL-PTD cell line EOL-1; type: cell-based, human; conditions: 10 μM, 10-day period
[17] = system: HOXA7, HOXA9, HOXA10, and MEIS1; assay: HOX/MEIS1 mRNA expression in NUP98-NSD1 transformed cells; type: cell-based, mouse; conditions: 10 μM, 7 day treatment; FIG. 5B
Description: FIG. 5B is a histogram showing mRNA expression of HOXA7, HOXA9, HOXA10, and MEIS1 relative to GAPDH (ddCT).

OCI-AML2 = assay: Proliferation of OCI-AML2 (DNTM3A mutant) cells; type: cell-based, human
Method: as §1, §2, §3

Molm-13 [18] = conditions: Daigle, 2011; cited from earlier work
[19] = day 19 complete blood counts, FIG. 13C

## CC(C)N(CCCNC(=O)Nc1ccc(C(C)(C)C)cc1)C[C@H]1O[C@@H](n2ccc3c(N)ncnc32)[C@H](O)[C@@H]1O [EPZ004777, 1-(3-((((2R,3S,4R,5R)-5-(4-Amino-7H-pyrrolo[2,3-d]pyrimidin-7-yl)-3,4-dihydroxytetrahydrofuran-2-yl)methyl)(isopropyl)amino)propyl)-3-(4-(tert-butyl)phenyl)urea]
HL-60
  IC50: > 50 µM
[1]
  colony formation potential: significant reduction
[2]; cells pre-treated 6 days with 10 μM, FIG. 13A
  survival (Kaplan-Meier): extended survival time; also recorded: prolonged survival
[2]; day 19, cells pre-treated 6 days with 10 μM, FIG. 13B
  peripheral blood smears, Wright-Giemsa stain: differentiation
[2]; [19]
  levels of hemoglobin: slight increase
  number of white blood cells: significant reduction
  platelet counts: slight increase
OCI-AML3 [3]
  cell cycle status by flow cytometry: Sub G1 accumulation
OCI-AML3 [3]; 10 μM, 4, 7, or 10 days, FIG. 11A
  apoptotic cells (Annexin V staining): tremendous increase in apoptotic cells; also recorded: apoptosis
[4]
  colony formation potential: significant reduction; also recorded: reduce the colony formation potential
[4]; listed as EPZ00477
  colony formation potential: significant reduction
[5]
  apoptosis (Annexin V staining): induces apoptosis
THP-1
  IC50: 3000 nM
[6]; cells treated with 10 μM, FIG. 13 A
  day on which animals start dying: 31 days
[6]; treatment of the AML cells with the DOT1L inhibitor
  survival time: prolonged survival time
HOXA9 and MEIS1
  MLL fusion driven gene expression, including HOXA9 and MEIS1: transcriptional repression; also recorded: dose-dependent inhibition
OCI-AML3 [7]; 10 μM, compared with MLL-translocated line (Molm-13), FIG. 7C, 10
  proliferation / cell number versus DMSO: as sensitive; also recorded: equally, if not more sensitive; also recorded: dramatically inhibited
OCI-AML3 [7]; Homo sapiens, OCI-AML-3, 264 h, MTT assays on day 11, concentrations up to 10 μM
  IC50: 150 nM
MV4-11 [8]
  IC50: 170 nM
[9]
  HOXA9, HOXA10, MEIS1, HOXB3, HOXB4 and HOXB5 mRNA levels: decreased
[9]; listed as EPZ00477
  HOXA9, HOXA10, MEIS1, HOXB3, HOXB4 and HOXB5 mRNA levels: significant decrease
H3K79me2 [10]
  H3K79me2 histone methylation: inhibited
Kasumi-1; 10 μM, AML1-ETO (Kasumi) cells, FIG. 3B, 7D
  proliferation (cell counts): not sensitive; also recorded: insensitive
Kasumi-1; Homo sapiens, Kasumi 1, read-out: IC50 for cell proliferation
  IC50: 33 µM
[11]
  inhibition of proliferation of MLL-translocated cell lines: selectively inhibits
MV4-11 [12]
  growth of MV4-11 leukemia cells: exquisitely sensitive
SEMK2
  IC50: 1700 nM
[13]
  HOXA9, HOXA10, MEIS1, HOXB3, HOXB4 and HOXB5 mRNA levels: decreased
[13]; listed as EPZ00477
  HOXA9, HOXA10, MEIS1, HOXB3, HOXB4 and HOXB5 mRNA levels: significant decrease
H3K79me2 [14]
  global H3K79me2 level (Western blotting): completely abrogated; also recorded: decrease
Molm-13 [15]
  IC50: 720 nM
REH
  IC50: 14 µM
KOPN-8
  IC50: 620 nM
OCI-AML3 [16]
  differentiation, cell surface marker CD11b expression: increased differentiation
EOL-1
  proliferation: significantly inhibited
[17]
  mRNA expression of HOXA7, HOXA9, HOXA10, and MEIS1: substantial decrease; also recorded: strong inhibitory effect
OCI-AML2; 10 μM, compared with Molm-13, FIG. 10
  cell number versus DMSO: equally, if not more sensitive; also recorded: sensitive
OCI-AML2; Homo sapiens, OCI-AML2, 264 h, MTT assays on day 11, concentrations up to 10 μM
  IC50: 150 nM
Molm-13 [18]
  growth of the MLL-AF9 cell line Molm-13: exquisitely sensitive
